Test results reported in PubChem BioAssay (NCI).
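Values below derive from 48-hour exposures of cells grown in 96-well plates, with endpoints linearly interpolated between the two concentrations bracketing the appropriate inhibition level. At the TGI there is no net growth.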

Columns and labels:
Test in all cases: inhibition of tumour cell growth, NCI panel, 48 h
SNB-19 CNS = system: SNB-19 CNS
IGROV1 ovarian = system: IGROV1 ovarian
MDA-MB-231 breast = system: MDA-MB-231 breast
SK-MEL-28 melanoma = system: SK-MEL-28 melanoma
COLO 205 colon = system: COLO 205 colon
HCT-116 colon = system: HCT-116 colon
NCI-H226 lung = system: NCI-H226 lung
A549 NSCLC = system: A549 NSCLC
HOP-92 NSCLC = system: HOP-92 NSCLC
SF-539 CNS = system: SF-539 CNS
M14 melanoma = system: M14 melanoma
SF-268 CNS = system: SF-268 CNS
UO-31 renal = system: UO-31 renal
HCT-15 colon = system: HCT-15 colon
HT29 colon = system: HT29 colon
EKVX NSCLC = system: EKVX NSCLC
NCI-H23 lung = system: NCI-H23 lung
CCRF-CEM leukemia = system: CCRF-CEM leukemia
TK-10 renal = system: TK-10 renal
786-0 renal = system: 786-0 renal
SK-OV-3 ovarian = system: SK-OV-3 ovarian
KM12 colon = system: KM12 colon
T-47D breast = system: T-47D breast
OVCAR-5 ovarian = system: OVCAR-5 ovarian
U251 CNS = system: U251 CNS
SK-MEL-5 melanoma = system: SK-MEL-5 melanoma
ACHN renal = system: ACHN renal
MCF7 breast = system: MCF7 breast
OVCAR-8 ovarian = system: OVCAR-8 ovarian
MOLT-4 leukemia = system: MOLT-4 leukemia
RPMI-8226 leukemia = system: RPMI-8226 leukemia
HOP-62 NSCLC = system: HOP-62 NSCLC
OVCAR-4 ovarian = system: OVCAR-4 ovarian
NCI/ADR-RES ovarian = system: NCI/ADR-RES ovarian
LOX IMVI melanoma = system: LOX IMVI melanoma
MALME-3M melanoma = system: MALME-3M melanoma
K-562 leukemia = system: K-562 leukemia
SN12C renal = system: SN12C renal
NCI-H522 lung = system: NCI-H522 lung
SW-620 colon = system: SW-620 colon
HL-60(TB) leukemia = system: HL-60(TB) leukemia
SK-MEL-2 melanoma = system: SK-MEL-2 melanoma
HCC-2998 colon = system: HCC-2998 colon
UACC-257 melanoma = system: UACC-257 melanoma
PC-3 prostate = system: PC-3 prostate
DU-145 prostate = system: DU-145 prostate
NCI-H460 lung = system: NCI-H460 lung
UACC-62 melanoma = system: UACC-62 melanoma
OVCAR-3 ovarian = system: OVCAR-3 ovarian
HS 578T breast = system: HS 578T breast
RXF 393 renal = system: RXF 393 renal
MDA-MB-435 = system: MDA-MB-435
SF-295 CNS = system: SF-295 CNS
CAKI-1 renal = system: CAKI-1 renal

Measured: TGI

S=c1[nH]n2c(Cc3ccccc3)nnc2s1
> 100 µM: all assays above
